These results are taken from ChEMBL document CHEMBL4118250, “Discovery of Novel Pyrazole-Based Selective Aldosterone Synthase (CYP11B2) Inhibitors: A New Template to Coordinate the Heme-Iron Motif of CYP11B2” (J Med Chem, 2018).

Molecules are shown by their SMILES.

Data set [1] in a line: Tmax in cynomolgus monkey at 1 mg/kg, po administered as single dose by LC-MS/MS analysis. The class given is ADME, organism-based, Macaca fascicularis. To be noted: in vivo.
A short description of data set [2]: Apparent passive permeability in human Caco2 cells. To be noted: Caco-2. It counts as ADME, cell-based. For orientation: Caco-2 monolayers are a common model of the intestinal barrier.
Data set [3] is described as follows: Solubility of the compound. It counts as physicochemical.
The subject of data set [4] is Cynomolgus monkey. Description: Time at which maximum plasma concentration stays above in vitro human CYP11B2 IC50 in cynomolgus monkey at 3 mg/kg, po administered as single dose by LC-MS/MS analysis. It counts as ADME, organism-based, Macaca fascicularis. To be noted: in vivo.
Data set [5] deals with Cynomolgus monkey. Description: Time at which maximum plasma concentration stays below in vitro human CYP11B2 IC50 in cynomolgus monkey at 3 mg/kg, po administered as single dose by LC-MS/MS analysis. It counts as ADME, organism-based, Macaca fascicularis. To be noted: in vivo.

One may read the Tmax as the time at which the peak concentration occurs. One may read the Papp as the rate of passage across a membrane or cell layer, normalised by area and donor concentration. Consider `Cc1cc(C#N)ccc1-c1cnn2c1C[C@@H](Oc1ncc(F)cn1)C2`, for which the Tmax in data set [1] turned out to be 4 h. The Papp in data set [2] worked out at 62.3 ×10⁻⁶ cm/s.
Take `Cc1cc(C#N)ccc1-c1cnn2c1C[C@@H](O)C2`: the solubility result in data set [3] was “Soluble”. The Papp in data set [2] worked out at 68.4 ×10⁻⁶ cm/s. In addition, the Time is 8 h in data set [4] and 24 h in data set [5].
